Columns and labels:
Format in all cases: cell-based
CFTR-G178R = target: T1, CFTR-G178R (Homo sapiens, UniProt P13569, G178R); test: YFP-halide influx assay for the CFTR-G178R
T1 construct: expressed in transfected cells
Outline: (§1)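 HEK293 cells reverse-transfected with a CFTR mutant and YFP H148Q/I152L/F47L halide sensor, expressed 24 h at 37° C. Fluorescence quenching followed for 7 s after I⁻ injection; activity expressed as 1−F/F0, with EC50 fitted from 1−F/F0 versus compound concentration.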

CFTR-R117H = target: T2, CFTR-R117H (Homo sapiens, UniProt P13569, R117H); test: YFP-halide influx assay for the CFTR-R117H
T2 construct: expressed in transfected cells
T2 sequence (P13569 whole entry R117H): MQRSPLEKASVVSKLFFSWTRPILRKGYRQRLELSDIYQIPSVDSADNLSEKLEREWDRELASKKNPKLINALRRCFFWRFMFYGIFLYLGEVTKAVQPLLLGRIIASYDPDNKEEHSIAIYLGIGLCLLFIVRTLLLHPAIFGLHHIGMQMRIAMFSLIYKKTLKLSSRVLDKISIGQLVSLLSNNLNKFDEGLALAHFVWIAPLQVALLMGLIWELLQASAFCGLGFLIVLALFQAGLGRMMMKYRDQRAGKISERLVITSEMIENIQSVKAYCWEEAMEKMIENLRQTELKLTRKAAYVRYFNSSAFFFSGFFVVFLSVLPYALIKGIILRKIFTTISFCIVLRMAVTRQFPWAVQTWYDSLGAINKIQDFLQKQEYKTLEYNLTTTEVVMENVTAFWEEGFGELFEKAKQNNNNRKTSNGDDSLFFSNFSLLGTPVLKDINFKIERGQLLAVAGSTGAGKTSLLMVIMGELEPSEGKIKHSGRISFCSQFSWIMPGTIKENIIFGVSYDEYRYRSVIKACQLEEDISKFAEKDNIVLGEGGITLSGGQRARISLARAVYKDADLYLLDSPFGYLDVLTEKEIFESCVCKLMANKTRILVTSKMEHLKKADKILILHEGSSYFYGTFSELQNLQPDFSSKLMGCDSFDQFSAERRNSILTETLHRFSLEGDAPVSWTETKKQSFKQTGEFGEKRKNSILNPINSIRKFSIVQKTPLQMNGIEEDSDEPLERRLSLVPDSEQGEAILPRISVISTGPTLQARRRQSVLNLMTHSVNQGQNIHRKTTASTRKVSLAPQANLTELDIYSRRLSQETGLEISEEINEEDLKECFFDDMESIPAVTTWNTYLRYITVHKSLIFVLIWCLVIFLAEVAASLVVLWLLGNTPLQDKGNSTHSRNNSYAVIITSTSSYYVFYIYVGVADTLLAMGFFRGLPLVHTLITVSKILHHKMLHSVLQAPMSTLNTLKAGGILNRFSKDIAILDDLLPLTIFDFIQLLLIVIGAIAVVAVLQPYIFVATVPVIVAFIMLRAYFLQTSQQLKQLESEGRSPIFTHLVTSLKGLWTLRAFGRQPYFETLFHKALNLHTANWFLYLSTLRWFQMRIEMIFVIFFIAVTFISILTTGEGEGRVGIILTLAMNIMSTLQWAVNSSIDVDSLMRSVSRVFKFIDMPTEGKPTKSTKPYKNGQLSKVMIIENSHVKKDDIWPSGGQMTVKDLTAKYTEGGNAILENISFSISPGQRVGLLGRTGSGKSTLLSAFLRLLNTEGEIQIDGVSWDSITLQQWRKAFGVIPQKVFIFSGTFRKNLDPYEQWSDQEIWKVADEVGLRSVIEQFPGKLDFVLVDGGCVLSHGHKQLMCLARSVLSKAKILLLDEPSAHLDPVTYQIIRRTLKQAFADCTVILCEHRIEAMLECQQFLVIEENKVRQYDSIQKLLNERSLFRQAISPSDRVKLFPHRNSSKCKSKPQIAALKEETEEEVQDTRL
Outline: as §1

CFTR-S549N = target: T3, CFTR-S549N (Homo sapiens, UniProt P13569, S549N); test: YFP-halide influx assay for the CFTR-S549N; parameters: % Activation: concentration or dose not given beside the values
T3 construct: expressed in transfected cells
T3 sequence (P13569 whole entry S549N): as the sequence (P13569 whole entry R117H) above, with H117R, S549N counted along it
Outline: as §1

CFTR-G1349D = target: T4, CFTR-G1349D (Homo sapiens, UniProt P13569, G1349D); test: YFP-halide influx assay for the CFTR-G1349D
T4 construct: expressed in transfected cells
T4 sequence (P13569 whole entry G1349D): as the sequence (P13569 whole entry R117H) above, with H117R, G1349D counted along it
Outline: as §1

CFTR ΔF508 = target: T5, CFTR ΔF508 (Homo sapiens, UniProt P13569, DEL508-508); test: TECC assay, primary bronchial epithelial cells, CFTR ΔF508; settings: primary bronchial epithelial cells of CF patients homozygous for CFTR ΔF508, treated with 3 μM VX809, increase in Isc after forskolin
T5 construct: host or cells: primary human bronchial epithelial cells from CF patients homozygous for ΔF508, pre-treated with VX809
T5 sequence (P13569 with tags, fused parts or gaps DEL508-508): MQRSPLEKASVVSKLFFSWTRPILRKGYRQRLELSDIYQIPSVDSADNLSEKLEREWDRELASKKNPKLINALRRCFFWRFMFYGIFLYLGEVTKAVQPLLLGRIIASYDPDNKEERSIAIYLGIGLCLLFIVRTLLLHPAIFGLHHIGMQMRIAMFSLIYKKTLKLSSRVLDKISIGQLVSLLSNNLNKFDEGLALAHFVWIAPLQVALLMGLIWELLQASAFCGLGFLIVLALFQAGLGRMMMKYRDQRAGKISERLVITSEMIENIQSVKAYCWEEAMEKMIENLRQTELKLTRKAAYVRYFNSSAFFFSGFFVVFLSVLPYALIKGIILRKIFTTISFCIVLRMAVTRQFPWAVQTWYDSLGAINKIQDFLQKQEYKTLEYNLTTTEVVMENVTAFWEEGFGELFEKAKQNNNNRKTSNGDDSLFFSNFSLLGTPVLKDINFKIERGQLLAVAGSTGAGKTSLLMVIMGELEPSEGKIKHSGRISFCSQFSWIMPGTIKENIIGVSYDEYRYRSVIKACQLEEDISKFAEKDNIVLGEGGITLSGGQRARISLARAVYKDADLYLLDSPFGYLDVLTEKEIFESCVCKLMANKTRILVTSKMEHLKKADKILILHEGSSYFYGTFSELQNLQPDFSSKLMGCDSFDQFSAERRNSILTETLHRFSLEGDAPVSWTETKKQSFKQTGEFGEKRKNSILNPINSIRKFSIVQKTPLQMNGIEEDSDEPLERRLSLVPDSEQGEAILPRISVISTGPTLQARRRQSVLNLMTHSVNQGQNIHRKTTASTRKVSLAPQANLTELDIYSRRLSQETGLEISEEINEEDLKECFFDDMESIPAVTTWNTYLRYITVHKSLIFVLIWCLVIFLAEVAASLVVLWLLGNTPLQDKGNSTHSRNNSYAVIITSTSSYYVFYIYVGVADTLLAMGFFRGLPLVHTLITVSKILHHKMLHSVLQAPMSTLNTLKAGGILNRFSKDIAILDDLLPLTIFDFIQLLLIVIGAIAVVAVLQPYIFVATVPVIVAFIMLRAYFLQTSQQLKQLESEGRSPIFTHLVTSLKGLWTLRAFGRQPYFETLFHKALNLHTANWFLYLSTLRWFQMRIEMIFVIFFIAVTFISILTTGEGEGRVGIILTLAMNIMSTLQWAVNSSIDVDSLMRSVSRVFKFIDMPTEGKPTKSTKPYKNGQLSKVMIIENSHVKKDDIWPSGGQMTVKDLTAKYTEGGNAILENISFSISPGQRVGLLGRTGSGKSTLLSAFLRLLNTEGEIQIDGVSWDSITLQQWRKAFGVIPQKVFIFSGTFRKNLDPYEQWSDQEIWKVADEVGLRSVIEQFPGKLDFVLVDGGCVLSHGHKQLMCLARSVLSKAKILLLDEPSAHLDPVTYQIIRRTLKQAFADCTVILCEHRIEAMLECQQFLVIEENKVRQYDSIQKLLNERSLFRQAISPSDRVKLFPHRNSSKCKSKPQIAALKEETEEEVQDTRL
Protocol: The TECC (Tranepithelial Clamp Circuit, EP-design) assay measures the functionality of the cystic fibrosis Transmembrane Conductance regulator (CFTR) by measuring the short circuit current (Isc) generated over the basolateral and apical membrane of lung epithelial cells. In TECC the transepithelial potential PD and transepithelial resistance (Rt) are measured in an open circuit and transformed to Isc using Ohm's law. 24 Wells can be measured simultaneously allowing a higher throughput compared to Ussing chambers.
For this purpose, bronchial epithelial cells isolated from CF patients homozygous for the CFTR ΔF508 mutation (hAEC-CF, Epithelix) are plated on type IV collagen-coated Transwell® supports (Costar). Human airway epithelia are generated by provision of an air-liquid interface for 21 days to form well-differentiated polarized cultures that resemble in vivo pseudo-stratified ciliated epithelium (Fulcher, M. L., Gabriel, S., Burns, K. A., Yankaskas, J. R., Randell, S. H., 2005. Well-differentiated human airway epithelial cell cultures. Methods Mol. Med. 107, 183-206). In the case of the homozygous ΔF508 CFTR samples, the differentiated cells are treated with 3 μM VX809 (2626 South Loop West, Suite 225, Houston, Tex. 77054 USA, Cat n# S1565) to allow sufficient expression of properly folded CFTR protein on the membrane (48 hours basolateral treatment and 24 hours apical treatment), prior to electrophysiological recordings. For heterozygous G551D/ΔF508, differentiated cells are used as such for the recordings.
Information on the compounds can be retrieved on the homozygous ΔF508 CFTR samples looking at increased CFTR activity when compounds are added in an acute mode or in a chronic mode. On G551D/ΔF508 CFTR heterozygous samples compounds are added in an acute mode to the differentiated cells.
For the acute mode, for electrophysiological recording, the human airway epithelia are mounted in the TECC heating plate for electrophysiological measurement and kept at 37° C. The epithelia are bathed in a NaCl-Ringer solution (120 mM NaCl, 25 mM NaHCO3, 1.2 mM CaCl2, 1.2 mM MgCl2, 0.8 mM KH2PO4, 0.8 mM K2HPO4, pH 7.4, 5 mM glucose) on both the basolateral and apical sides. Apical amiloride is used to inhibit the endogenous ENaC currents while forkolin is applied on both apical and basolateral side to stimulate CFTR. After forskolin triggering, compounds are added on both sides to test their potential for increasing CFTR gating. Measurements are done during a 20 minute timeframe with recordings every 2 minutes. The increase in Isc is used as a measure for the increased CFTR activity, EC50 values can be generated by measuring impact of different concentrations of compound on Isc on primary cells, for this purpose each transwell is treated with a different compound concentration. Inh-172, an inhibitor specific for CFTR, is used to test the specificity of the tested compounds.
For the chronic mode, the differentiated cells are treated with 3 μM VX809 (2626 South Loop West, Suite 225, Houston, Tex. 77054 USA, Cat n# S1565) and potentiator compounds at different concentrations (48 hours basolateral treatment and 24 hours apical treatment), prior to electrophysiological recordings. For electrophysiological recording, the human airway epithelia are mounted in the TECC heating plate for electrophysiological measurement and kept at 37° C. The epithelia are bathed in a NaCl-Ringer solution (120 mM NaCl, 25 mM NaHCO3, 1.2 mM CaCl2, 1.2 mM MgCl2, 0.8 mM KH2PO4, 0.8 mM K2HPO4, pH 7.4, 5 mM glucose) on both the basolateral and apical sides. Apical amiloride is used to inhibit the endogenous ENaC currents while forkolin is applied on both apical and basolateral side to stimulate CFTR. Measurements are done during a 20 minute timeframe with recordings every 2 minutes. […]

T1 sequence (P13569 whole entry G178R): as the sequence (P13569 whole entry R117H) above, with H117R, G178R counted along it

Row | SMILES | % Activation (CFTR-G178R) | EC50 (CFTR-G178R) | % Activation (CFTR-R117H) | EC50 (CFTR-R117H) | % Activation (CFTR-S549N) | EC50 (CFTR-S549N) | % Activation (CFTR-G1349D) | EC50 (CFTR-G1349D) | EC50 (CFTR ΔF508)
1 | CC(O)(CNC(=O)c1ncc(S(=O)(=O)c2ccc(OC(F)(F)F)cc2)cc1N)C(F)(F)F (stereo not drawn) [Compound 2, 3-amino-N-(3,3,3-trifluoro-2-hydroxy-2-methylpropyl)-5-{[4-(trifluoromethoxy)phenyl]sulfonyl}pyridine-2-carboxamide] | 71.8% | 494 nM | 76.0% | 231 nM | 70.3% | 331 nM | 69.4% | 567 nM | 47.1 nM
2 | Nc1cc(S(=O)(=O)c2ccc(OC(F)(F)F)cc2)cnc1C(=O)N1CC(O)C1 [Compound 32, (3-amino-5-{[4-(trifluoromethoxy)phenyl]sulfonyl}pyridin-2-yl)(3-hydroxyazetidin-1-yl)methanone] | 78.0% | 522 nM | 91.3% | 460 nM | 91.7% | 711 nM | 88.0% | 536 nM | 72.9 nM
3 | COC[C@H](O)CNC(=O)c1ncc(S(=O)(=O)c2ccc(C(F)(F)F)cc2)cc1N [Compound 70, 3-amino-N-[(2R)-2-hydroxy-3-methoxypropyl]-5-{[4-(trifluoromethyl)phenyl]sulfonyl}pyridine-2-carboxamide] | 96.0% | 425 nM | 98.8% | 540 nM | 104.7% | 526 nM | 89.6% | 378 nM | 38.8 nM
4 | Nc1cc(S(=O)(=O)c2ccc(F)cc2)cnc1C(=O)NC[C@@H](O)C(F)(F)F [Compound 36, 3-amino-5-[(4-fluorophenyl)sulfonyl]-N-[(2R)-3,3,3-trifluoro-2-hydroxypropyl]pyridine-2-carboxamide] | 79.3% | 230 nM | 100.8% | 148 nM | 92.9% | 294 nM | 82.7% | 312 nM | 63 nM
5 | Nc1cc(S(=O)(=O)c2ccc(OC(F)(F)F)cc2)cnc1C(=O)N1CC(F)(F)C1 [Compound 40, (3-amino-5-{[4-(trifluoromethoxy)phenyl]sulfonyl}pyridin-2-yl)(3,3-difluoroazetidin-1-yl)methanone] | 81.76% | 392 nM | 86.71% | 291 nM | 84.51% | 1200 nM | 84.31% | 440 nM | 62.2 nM
6 | Nc1cc(S(=O)(=O)c2ccc(F)cc2)cnc1C(=O)NC[C@H](O)C(F)(F)F [Compound 25, 3-amino-5-[(4-fluorophenyl)sulfonyl]-N-[(2S)-3,3,3-trifluoro-2-hydroxypropyl]pyridine-2-carboxamide] | 76.8% | 211 nM | 91.3% | 318 nM | 82.5% | 292 nM | 82.6% | 412 nM | 38.6 nM

Second part, the compound after the results:

Row | % Activation (CFTR-G178R) | EC50 (CFTR-G178R) | % Activation (CFTR-R117H) | EC50 (CFTR-R117H) | % Activation (CFTR-S549N) | EC50 (CFTR-S549N) | % Activation (CFTR-G1349D) | EC50 (CFTR-G1349D) | EC50 (CFTR ΔF508) | SMILES
7 | 70.7% | 741 nM | 89.7% | 943 nM | 68.9% | 1100 nM | 66.7% | 816 nM | – | Nc1cc(S(=O)(=O)c2ccc(OC(F)(F)F)cc2)cnc1C(=O)NCCO [Compound 14, 3-amino-N-(2-hydroxyethyl)-5-{[4-(trifluoromethoxy)phenyl]sulfonyl}pyridine-2-carboxamide]
8 | – | – | – | – | – | – | – | – | 24 nM | Nc1cc(S(=O)(=O)c2ccc(OC(F)(F)F)cc2)cnc1C(=O)NC[C@H](O)C(F)(F)F [Compound 26, 3-amino-N-[(2S)-3,3,3-trifluoro-2-hydroxypropyl]-5-{[4-(trifluoromethoxy)phenyl]sulfonyl}pyridine-2-carboxamide]
9 | 84.3% | 348 nM | 100.0% | 866 nM | 91.4% | 567 nM | 86.8% | 511 nM | 48.4 nM | Nc1cc(S(=O)(=O)c2ccc(OC(F)(F)F)cc2)cnc1C(=O)NCC(O)COCC1CC1 (stereo not drawn) [Compound 31, 3-amino-N-[3-(cyclopropylmethoxy)-2-hydroxypropyl]-5-{[4-(trifluoromethoxy)phenyl]sulfonyl}pyridine-2-carboxamide]
10 | – | – | – | – | – | – | – | – | 13.2 nM | Nc1cc(S(=O)(=O)c2ccc(OC(F)(F)F)cc2)cnc1C(=O)NC[C@@H](O)C(F)(F)F [Compound 37, 3-amino-N-[(2R)-3,3,3-trifluoro-2-hydroxypropyl]-5-{[4-(trifluoromethoxy)phenyl]sulfonyl}pyridine-2-carboxamide]
11 | 82.7% | 302 nM | 98.5% | 598 nM | 72.7% | 580 nM | 69.6% | 265 nM | 95.9 nM | CC(C)(O)CNC(=O)c1ncc(S(=O)(=O)c2ccc(OC(F)(F)F)cc2)cc1N [Compound 1, 3-amino-N-(2-hydroxy-2-methylpropyl)-5-{[4-(trifluoromethoxy)phenyl]sulfonyl}pyridine-2-carboxamide]
12 | 93.1% | 80.7 nM | 95.7% | 63.9 nM | 87.1% | 390 nM | 87.4% | 158 nM | 63.2 nM | Nc1cc(S(=O)(=O)c2ccc(OC(F)(F)F)cc2)cnc1C(=O)NCC(O)C(F)(F)F (stereo not drawn) [Compound 6, 3-amino-N-(3,3,3-trifluoro-2-hydroxypropyl)-5-{[4-(trifluoromethoxy)phenyl]sulfonyl}pyridine-2-carboxamide]
13 | 78.7% | 546 nM | 97.3% | 505 nM | 103.0% | 648 nM | 75.5% | 533 nM | – | C[C@H](O)CNC(=O)c1ncc(S(=O)(=O)c2ccc(C(F)(F)F)cc2)cc1N [Compound 100, 3-amino-N-[(2S)-2-hydroxypropyl]-5-{[4-(trifluoromethyl)phenyl]sulfonyl}pyridine-2-carboxamide]
14 | 86.1% | 284 nM | 93.3% | 289 nM | 86.4% | 748 nM | 88.9% | 498 nM | 35.5 nM | C[C@H](O)CNC(=O)c1ncc(S(=O)(=O)c2ccc(OC(F)(F)F)cc2)cc1N [Compound 21, 3-amino-N-[(2S)-2-hydroxypropyl]-5-{[4-(trifluoromethoxy)phenyl]sulfonyl}pyridine-2-carboxamide]

— patent US10047051B2, “Substituted pyridines and method of use” (AbbVie S.á{acute over (.)}r.l., priority 2015, dated 2018)
